Measured values taken from the NIST ThermoML archive (doi:10.1021/je1001413).

Details: Liquid, Vibrating tube method

CC(C)CCCCCCCOC(=O)c1ccccc1C(=O)OCCCCCCCC(C)C
Details | mass density [kg/m3]
283.15 K, 100 kPa | 974.5
283.15 K, 200 kPa | 974.5
283.15 K, 400 kPa | 974.6
283.15 K, 600 kPa | 974.7
283.15 K, 800 kPa | 974.9
283.15 K, 1010 kPa | 975
283.15 K, 2000 kPa | 975.5
283.15 K, 3020 kPa | 976
283.15 K, 4000 kPa | 976.6
283.15 K, 5000 kPa | 977.1
283.15 K, 6000 kPa | 977.7
283.15 K, 6980 kPa | 978.2
283.15 K, 8010 kPa | 978.7
283.15 K, 9020 kPa | 979.3
283.15 K, 10030 kPa | 979.8
283.15 K, 15000 kPa | 982.4
283.15 K, 19970 kPa | 985
283.15 K, 25030 kPa | 987.3
283.15 K, 29980 kPa | 989.8
283.15 K, 35030 kPa | 992.1
283.15 K, 40000 kPa | 994.5
283.15 K, 45030 kPa | 996.6
283.15 K, 49980 kPa | 998.8
283.15 K, 55030 kPa | 1000.9
283.15 K, 59990 kPa | 1002.6
283.15 K, 64990 kPa | 1005.1
288.15 K, 100 kPa | 970.7
288.15 K, 200 kPa | 970.8
288.15 K, 420 kPa | 970.9
288.15 K, 600 kPa | 971
288.15 K, 790 kPa | 971.1
288.15 K, 1000 kPa | 971.2
288.15 K, 1990 kPa | 971.7
288.15 K, 3020 kPa | 972.3
288.15 K, 4010 kPa | 972.9
288.15 K, 5000 kPa | 973.4
288.15 K, 6010 kPa | 974
288.15 K, 7020 kPa | 974.5
288.15 K, 7980 kPa | 975
288.15 K, 9000 kPa | 975.5
288.15 K, 10000 kPa | 976.1
288.15 K, 14990 kPa | 978.7
288.15 K, 19970 kPa | 981.4
288.15 K, 25000 kPa | 983.8
288.15 K, 30000 kPa | 986.4
288.15 K, 34990 kPa | 988.8
288.15 K, 40020 kPa | 991.1
288.15 K, 45000 kPa | 993.3
288.15 K, 49980 kPa | 995.7
288.15 K, 54980 kPa | 997.7
288.15 K, 60000 kPa | 999.9
288.15 K, 65000 kPa | 1002
293.15 K, 100 kPa | 967
293.15 K, 200 kPa | 967.1
293.15 K, 400 kPa | 967.2
293.15 K, 630 kPa | 967.3
293.15 K, 790 kPa | 967.4
293.15 K, 1000 kPa | 967.5
293.15 K, 2010 kPa | 968.1
293.15 K, 3020 kPa | 968.7
293.15 K, 4020 kPa | 969.2
293.15 K, 4970 kPa | 969.8
293.15 K, 5980 kPa | 970.3
293.15 K, 7020 kPa | 970.9
293.15 K, 8000 kPa | 971.5
293.15 K, 9020 kPa | 972
293.15 K, 10010 kPa | 972.6
293.15 K, 15010 kPa | 975.2
293.15 K, 20000 kPa | 977.9
293.15 K, 25030 kPa | 980.5
293.15 K, 30020 kPa | 983
293.15 K, 35030 kPa | 985.4
293.15 K, 40010 kPa | 987.8
293.15 K, 44980 kPa | 990.1
293.15 K, 50020 kPa | 992.4
293.15 K, 55020 kPa | 994.6
293.15 K, 60020 kPa | 996.8
293.15 K, 65000 kPa | 998.9
298.15 K, 100 kPa | 963.4
298.15 K, 200 kPa | 963.4
298.15 K, 410 kPa | 963.6
298.15 K, 620 kPa | 963.7
298.15 K, 820 kPa | 963.8
298.15 K, 1000 kPa | 963.9
298.15 K, 2020 kPa | 964.5
298.15 K, 3040 kPa | 965
298.15 K, 4030 kPa | 965.7
298.15 K, 4980 kPa | 966.2
298.15 K, 6070 kPa | 966.8
298.15 K, 7020 kPa | 967.3
298.15 K, 8040 kPa | 967.9
298.15 K, 9040 kPa | 968.5
298.15 K, 10030 kPa | 969
298.15 K, 15010 kPa | 971.7
298.15 K, 19990 kPa | 974.4
298.15 K, 25000 kPa | 977
298.15 K, 30020 kPa | 979.6
298.15 K, 35000 kPa | 982.1
298.15 K, 40020 kPa | 984.5
298.15 K, 44970 kPa | 986.9
298.15 K, 49990 kPa | 989.2
298.15 K, 54970 kPa | 991.4
298.15 K, 60000 kPa | 993.7
298.15 K, 65020 kPa | 995.8
303.15 K, 100 kPa | 959.7
303.15 K, 200 kPa | 959.8
303.15 K, 400 kPa | 959.9
303.15 K, 580 kPa | 960
303.15 K, 800 kPa | 960.2
303.15 K, 1000 kPa | 960.3
303.15 K, 2000 kPa | 960.9
303.15 K, 2990 kPa | 961.4
303.15 K, 4000 kPa | 962
303.15 K, 5000 kPa | 962.6
303.15 K, 6000 kPa | 963.2
303.15 K, 7000 kPa | 963.8
303.15 K, 7980 kPa | 964.3
303.15 K, 9000 kPa | 964.9
303.15 K, 10020 kPa | 965.5
303.15 K, 14970 kPa | 968.2
303.15 K, 20010 kPa | 971
303.15 K, 25030 kPa | 973.6
303.15 K, 30020 kPa | 976.3
303.15 K, 35000 kPa | 978.8
303.15 K, 40000 kPa | 981.2
303.15 K, 45000 kPa | 983.6
303.15 K, 50010 kPa | 986
303.15 K, 54980 kPa | 988.3
303.15 K, 60000 kPa | 990.5
303.15 K, 64990 kPa | 992.7
308.15 K, 100 kPa | 956.2
308.15 K, 200 kPa | 956.2
308.15 K, 410 kPa | 956.4
308.15 K, 610 kPa | 956.5
308.15 K, 800 kPa | 956.6
308.15 K, 1000 kPa | 956.7
308.15 K, 2010 kPa | 957.3
308.15 K, 3020 kPa | 957.9
308.15 K, 4000 kPa | 958.5
308.15 K, 5000 kPa | 959.1
308.15 K, 6000 kPa | 959.7
308.15 K, 7020 kPa | 960.3
308.15 K, 8000 kPa | 960.8
308.15 K, 9020 kPa | 961.4
308.15 K, 10000 kPa | 962
308.15 K, 15010 kPa | 964.8
308.15 K, 19990 kPa | 967.6
308.15 K, 25000 kPa | 970.3
308.15 K, 30010 kPa | 973
308.15 K, 35000 kPa | 975.5
308.15 K, 39990 kPa | 978
308.15 K, 44990 kPa | 980.4
308.15 K, 50010 kPa | 982.9
308.15 K, 55000 kPa | 985.2
308.15 K, 60000 kPa | 987.4
308.15 K, 65000 kPa | 989.7
